Where a SMILES comes first, the peptide text is derived from it. [ ]: non-standard residue; d: D form. pT = C[C@@H](OP(=O)(O)O)[C@H](N)C(=O)O; pS = N[C@@H](COP(=O)(O)O)C(=O)O

The experiment has as its target T1, Skp1-FBXW7 complex (Homo sapiens, UniProt P63208+Q969H0).
T1 construct: human FBXW7 (263-707) with an N-terminal hexa-histidine (His6) tag; His6 (N, cleaved yes); made in house; host or cells: E. coli Rosetta (DE3)
Nature of the experiment: Fluorescence polarization competitive protein-peptide binding assay. Conditions: for binding affinity to purified FBXW7 in vitro: FP based quantitative in vitro binding assay, result in words; for Kd: FP competition of unlabeled peptide against 50 nM CF-labeled CCNE peptide at ~60-80% complex formation, 20 mM Tris pH 8.0, 100 mM NaCl, 0.05% Brij35P, 2 mM TCEP, value with error. The procedure:
Truncated Skp1 (1-149) and human FBXW7 (263-707) with an N-terminal hexa-histidine (His6) tag were cloned into a bicistronic plasmid (pMG950) and were co-expressed in E. coli Rosetta (DE3) strain. The Skp1-FBXW7 complex was purified using affinity, anion exchange, and gel filtration chromatography. The DNA expression plasmid was transformed into E. coli Rosetta (DE3) strain and grown in LB until OD600 = 0.5, protein expression was induced with 100 µM isopropyl-β-d-1-thigalatopyaranoside (IPTG) overnight at 18 °C. The cell pellet was lysed, and the recombinant protein was purified using Ni-NTA agarose beads. Before further purification the His6-tag was removed by using the TEV protease and then the protein complex was further purified using anion exchange chromatography twice, first with a Resource Q and then with a Mono Q column (pH = 8). Finally, the complex was subjected to size-exclusion chromatography in 20 mM Tris, pH = 8, 150 mM NaCl, and 1 mM DTT using a Superdex200 10/300 column (GE Healthcare, Chicago, IL, USA). The eluted fractions were pooled together and were supplemented with 10% glycerol and 2 mM TCEP before concentration and storage.
Fluoresce polarization (FP) based protein–peptide binding affinity measurements were carried out using 50 nM carboxyfluorescein (CF) labeled CCNE peptide (CF-PSGLLpTPPQpSGKKQ) and data were fit to a direct or a competitive binding equation using OriginPro 2018 as described earlier. For the direct measurements the concentration of Skp1-FBXW7 complex was increased in a titration experiment and then the binding affinity (Ki) of the unlabeled peptide was determined by titrating the Skp1-FBXW7: labelled peptide complex sample, at a concentration corresponding to ~60–80% complex formation, with increasing amounts of unlabeled peptide. All the FP measurements were performed in 20 mM Tris (pH 8.0), 100 mM NaCl, 0.05% Brij35P, and 2 mM TCEP using a Cytation^TM 3 (BioTek Instruments) plate reader (384-well plates in 20 µL binding reaction volume). Peptides were chemically synthesized and were ordered from GenScript.
(In general: Polarisation of emitted light reports the rotation of a fluorescent probe.)

T1 sequence (Q969H0 263-707): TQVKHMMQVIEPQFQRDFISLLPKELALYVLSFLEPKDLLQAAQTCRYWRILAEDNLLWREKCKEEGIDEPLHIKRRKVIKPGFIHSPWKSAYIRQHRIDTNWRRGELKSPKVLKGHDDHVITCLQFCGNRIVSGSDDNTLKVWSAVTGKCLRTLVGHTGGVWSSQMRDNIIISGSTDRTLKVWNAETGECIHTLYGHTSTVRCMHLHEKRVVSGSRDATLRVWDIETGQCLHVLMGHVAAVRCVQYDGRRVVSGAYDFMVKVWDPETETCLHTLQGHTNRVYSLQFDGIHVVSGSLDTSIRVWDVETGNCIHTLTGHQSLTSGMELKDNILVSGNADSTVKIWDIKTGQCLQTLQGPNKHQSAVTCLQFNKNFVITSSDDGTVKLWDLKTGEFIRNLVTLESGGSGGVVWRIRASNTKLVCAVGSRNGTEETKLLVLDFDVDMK
T1 sequence (P63208 1-149 partner limits assumed): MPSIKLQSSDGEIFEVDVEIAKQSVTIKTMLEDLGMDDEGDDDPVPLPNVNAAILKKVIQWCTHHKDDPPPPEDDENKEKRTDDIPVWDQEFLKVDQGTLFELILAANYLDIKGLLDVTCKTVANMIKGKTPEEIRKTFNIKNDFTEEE

What is called Kd is the free concentration of one partner at which half of the binding sites on the other are occupied at equilibrium, for simple one-to-one binding. Low values mean a tighter complex, high ones a looser complex. Consider `CSCC[C@H](NC(=O)[C@@H]1CCCN1C(=O)[C@@H](NC(=O)[C@H](CCC(=O)O)NC(=O)[C@@H]1CCCN1C(=O)[C@@H]1CCCN1C(=O)[C@@H](NC(=O)[C@H](Cc1ccc(O)cc1)NC(=O)[C@H](CC(C)C)NC(=O)[C@H](CC(N)=O)NC(=O)[C@H](CC(C)C)NC(=O)[C@H](CCCCN)NC(=O)[C@@H](N)Cc1ccccc1)[C@@H](C)OP(=O)(O)O)[C@@H](C)OP(=O)(O)O)C(=O)N[C@@H](CCC(=O)O)C(=O)N1CCC[C@H]1C(=O)O` [KAT6B] (H-FKLNLY[pT]PPE[pT]PMEP-OH), for which the “binding affinity to purified FBXW7 in vitro” value (“binding affinity” for short) is on record as “low nanomolar” and binding was put at a Kd of 2.8 ± 0.2 nM.

`CC(C)C[C@H](NC(=O)[C@@H]1CCCN1C(=O)[C@H](CCCCN)NC(=O)[C@H](Cc1ccccc1)NC(=O)CNC(=O)[C@@H](N)CO)C(=O)N[C@H](C(=O)N1CCC[C@H]1C(=O)N1CCC[C@H]1C(=O)N[C@H](C(=O)N[C@H](C(=O)N1CCC[C@H]1C(=O)N[C@@H](CC(C)C)C(=O)N[C@@H](CO)C(=O)N1CCC[C@H]1C(=O)O)[C@@H](C)OP(=O)(O)O)[C@@H](C)O)[C@@H](C)OP(=O)(O)O` [ETV5] (H-SGFKPL[pT]PPT[pT]PLSP-OH): the “binding affinity” value is “low nanomolar” and the dissociation constant (Kd) was 16.1 ± 2.1 nM.

As to `CSCC[C@H](NC(=O)[C@@H]1CCCN1C(=O)[C@@H]1CCCN1C(=O)[C@@H](NC(=O)[C@@H]1CCCN1C(=O)[C@H](CC(N)=O)NC(=O)CNC(=O)[C@@H]1CCCN1C(=O)[C@@H](NC(=O)[C@@H]1CCCN1)C(C)C)[C@@H](C)OP(=O)(O)O)C(=O)N[C@H](C(=O)N1CCC[C@H]1C(=O)NCC(=O)N[C@@H](CO)C(=O)N[C@@H](CO)C(=O)O)[C@@H](C)OP(=O)(O)O` [ZMIZ1] (H-PVPGNP[pT]PPM[pT]PGSS-OH), the “binding affinity” value is given as “low nanomolar” and the dissociation constant (Kd) amounted to 52.3 ± 2.6 nM.

Consider `CSCC[C@H](NC(=O)CNC(=O)[C@H](Cc1c[nH]cn1)NC(=O)[C@@H](N)[C@@H](C)O)C(=O)N[C@@H](CCSC)C(=O)N[C@@H](CC(C)C)C(=O)N[C@H](C(=O)N1CCC[C@H]1C(=O)N1CCC[C@H]1C(=O)N[C@@H](CO)C(=O)N[C@@H](COP(=O)(O)O)C(=O)N1CCC[C@H]1C(=O)N[C@@H](CC(C)C)C(=O)N[C@@H](CCC(=O)O)C(=O)N[C@@H](CC(C)C)C(=O)O)[C@@H](C)OP(=O)(O)O` [KLF4] (H-THGMML[pT]PPS[pS]PLEL-OH), for which the “binding affinity” value was “low nanomolar” and the affinity, expressed as Kd, was 11 ± 1 nM.

In the case of `CC[C@H](C)[C@H](NC(=O)[C@@H]1CCCN1C(=O)[C@@H]1CCCN1C(=O)[C@@H](NC(=O)[C@@H](NC(=O)[C@@H]1CCCN1C(=O)[C@@H]1CCCN1C(=O)[C@@H](NC(=O)[C@H](CC(C)C)NC(=O)[C@H](CO)NC(=O)CNC(=O)[C@H](CO)NC(=O)[C@H](CO)NC(=O)[C@@H](N)Cc1c[nH]cn1)[C@@H](C)OP(=O)(O)O)C(C)C)[C@@H](C)OP(=O)(O)O)C(=O)N[C@H](C(=O)O)[C@@H](C)O` [JAZF1] (H-HSSGSL[pT]PPV[pT]PPIT-OH), the “binding affinity” value is “low nanomolar” and the affinity, expressed as Kd, was 29.7 ± 3.2 nM.

Turning to `CC(C)C[C@H](NC(=O)[C@@H](NC(=O)[C@H](CO)NC(=O)[C@H](CC(N)=O)NC(=O)[C@@H](N)CO)C(C)C)C(=O)N[C@@H](CC(N)=O)C(=O)N[C@H](C(=O)N1CCC[C@H]1C(=O)N1CCC[C@H]1C(=O)N[C@H](C(=O)N[C@H](C(=O)N1CCC[C@H]1C(=O)N[C@@H](CCC(=O)O)C(=O)N[C@@H](CO)C(=O)N1CCC[C@H]1C(=O)O)[C@@H](C)OP(=O)(O)O)[C@@H](C)O)[C@@H](C)OP(=O)(O)O` [ARID4B] (H-SNSVLN[pT]PPT[pT]PESP-OH), the “binding affinity” value is on record as “low nanomolar” and binding was put at a Kd of 17.7 ± 0.6 nM.

These data come from publication PMC8955265, “Systematic Discovery of FBXW7-Binding Phosphodegrons Highlights Mitogen-Activated Protein Kinases as Important Regulators of Intracellular Protein Levels” (International Journal of Molecular Sciences, 2022).
